These results are taken from patent US9752236B2, “Corrosion inhibitors” (Rhodia Operations, priority 2010, dated 2017).

A short description of assay [1]: Linear Polarisation Resistance (LPR) bubble test, corrosion inhibition under oilfield conditions. As to conditions: 20 ppm actives; 5% NaCl brine/Isopar M 9:1; 60° C.; constant CO2; 15 hours. The method, then:
[formula] where baseline corrosion was calculated by taking the average corrosion rate of each cell before the corrosion inhibitors were introduced.
The same tests as described in Example 1 were carried out on the products set out in Table 3 below.

Assay [2] can be described thus: Static acid immersion test in 5% w/w acetic acid. As to conditions: 50° C., 24 hours, 2000 ppm w/w active inhibitor. The method, then: (§1) Static acid immersion tests were used to compare the corrosion inhibition performance of various sulfosuccinates in 5% w/w HCl to the industry standard propargyl alcohol (2-propyn-1-ol) and the corrosion inhibitor Stannine® ETH, which is a blend of amine salts and aliphatic alcohols and is available from Rhodia Novecare.
(§2) • A control solution of 5% w/w HCl was prepared by diluting 37% w/w HCl with deionised water. • An inhibited solution of 5% w/w HCl & 2000 ppm w/w active corrosion inhibitor was then prepared for each of the corrosion inhibitors being evaluated. Stannine® ETH was used at 2000 ppm w/w solids as the active content of Stannine® ETH is unknown. • Each solution was then split evenly between 2 Schott bottles (for duplicate runs) and a pre-weighed C1018 mild steel coupon was placed in each so that it was completely submerged. • The Schott bottles were then sealed tightly and stored for 24 hours in an oven set at 50° C. • After the allotted time the coupons were removed from the oven and cleaned using deionised water, HCl cleaning solution and acetone. The HCl cleaning solution had been made by dissolving 5 g SnCl2 and 2 g SbCl3 in 100 ml of 37% w/w HCl. • The coupons were then oven dried before re-weighing with the average weight change of the duplicate coupons being used to calculate the corrosion rate. The above process was then repeated using (a) 5% w/w H2SO4 and (b) 5% w/w acetic acid instead of HCl.

Assay [3] in a line: Static acid immersion test in 5% w/w HCl. Particulars: 50° C., 24 hours, 2000 ppm w/w active inhibitor. The method, then: as §1, §2
Assay [4] in a line: Static acid immersion test in 5% w/w H2SO4. Particulars: 5% w/w H2SO4, 50° C., 24 hours, 2000 ppm w/w active inhibitor. The method, then: as §1, §2

For Disodium laureth sulfosuccinate, in assay [1], the “corrosion rate (LPR), in words” value is “significantly reduce the corrosion rate and have a performance very similar to the industry standard”.

For the compound Disodium oleth 9 sulfosuccinate, the “corrosion rate (LPR), in words” value in assay [1] is listed as “significantly reduce corrosion rates, although they do not perform quite as well as the industry standard”.

As for `CCCCCCCC/C=C\CCCCCCCC(=O)NCCOC(=O)C(CC(=O)[O-])S(=O)(=O)[O-].[Na+].[Na+]` (stereo not shown) [Disodium oleamido MEA sulfosuccinate], the “corrosion rate (LPR), in words” value in assay [1] is listed as “significantly reduce corrosion rates, although they do not perform quite as well as the industry standard”. The “% Efficiency” value in assay [2] came out at 56.7%; in assay [3], 88.0%; in assay [4], 65.2%. The Corrosion rate in assay [2] is 60.7 mils/y; in assay [3], 171.5 mils/y; in assay [4], 669.3 mils/y.

As to Disodium oleamido MIPA sulfosuccinate, the “corrosion rate (LPR), in words” value in assay [1] is “significantly reduce the corrosion rate and have a performance very similar to the industry standard”. In addition, the “% Efficiency” value in assay [2] was found to be 70.9%; in assay [3], 88.5%; in assay [4] it was 68.4%. Also, the Corrosion rate in assay [2] was 40.9 mils/y; in assay [3], 163.3 mils/y; in assay [4], 607.0 mils/y.

Disodium cocamido MIPA sulfosuccinate: in assay [1], the “corrosion rate (LPR), in words” value was “significantly reduce the corrosion rate and have a performance very similar to the industry standard”.

As to “Disodium ricinoleamido MEA sulfosuccinate”, the “corrosion rate (LPR), in words” value in assay [1] was “significantly reduce the corrosion rate and have a performance very similar to the industry standard”. The “% Efficiency” value worked out at 77.2% in assay [2], 84.4% in assay [3] and 81.1% in assay [4]. Also, the Corrosion rate is recorded as 32.0 mils/y in assay [2], 221.4 mils/y in assay [3] and 362.5 mils/y in assay [4].

As to `C#CCO` [Propargyl alcohol, 2-propyn-1-ol, reference compound], the Corrosion rate was 9.5 mils/y in assay [3] and 1575.2 mils/y in assay [4]. For the same compound, the entries for the “% Efficiency” value in assay [4] and in assay [4] (listed as propargyl alcohol) were 18.0% and “not performing well as an inhibitor in this environment”, respectively.
